Format in all cases: biochemical
One assay has as its target T1, FGFR4 (Homo sapiens, UniProt P22455).
T1 construct: FGFR4's cytoplasmic domain [460-802 (terminal) amino acids]; purchased Carna 08-136
The assay can be described thus: FGFR4 kinase activity inhibition assay (LanthaScreen TR-FRET). As to conditions: FGFR4 kinase, TR-FRET; read-out: IC50 (nM) FGFR4. In outline: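 GST-tagged cytoplasmic domains (FGFR2 aa 399-821; FGFR4 aa 460-802) were preincubated 10 min at 23 °C with compound (top 1 µM, threefold dilutions). Then 28 nM fluorescein-poly GT and 28 µM ATP were added for 30 min at 23 °C in HEPES pH 7.5 buffer. Tb-PY20 TR-FRET 520/495 ratio gave % inhibition versus DMSO and no-enzyme controls.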
On the technique in general: TR-FRET usually uses a lanthanide donor and a delayed reading to cut background.

The target of another assay is T2, FGFR1 (Homo sapiens, UniProt P11362).
T2 construct: cytoplasmic domain [398-822 (terminal) amino acids]; purchased Carna 08-133
T2 sequence (P11362 398-822): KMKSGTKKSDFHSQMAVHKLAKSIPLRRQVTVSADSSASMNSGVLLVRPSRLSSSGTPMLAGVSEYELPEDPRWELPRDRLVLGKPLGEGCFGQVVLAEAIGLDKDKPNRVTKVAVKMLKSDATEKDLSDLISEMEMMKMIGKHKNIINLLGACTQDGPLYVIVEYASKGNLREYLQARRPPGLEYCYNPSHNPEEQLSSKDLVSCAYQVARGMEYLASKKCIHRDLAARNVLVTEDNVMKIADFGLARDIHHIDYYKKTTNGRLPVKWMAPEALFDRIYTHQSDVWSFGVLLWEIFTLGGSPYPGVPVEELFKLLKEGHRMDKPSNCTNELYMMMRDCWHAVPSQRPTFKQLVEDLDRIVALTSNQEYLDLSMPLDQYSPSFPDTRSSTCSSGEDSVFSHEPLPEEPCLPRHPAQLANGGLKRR
As to the kind of experiment: FGFR1 kinase activity inhibition assay (LanthaScreen TR-FRET). The conditions noted are these: FGFR1 kinase, TR-FRET; read-out: IC50 (nM) FGFR1. In outline: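 Emission ratio 520 nm/495 nm by TR-FRET after stopping reaction with 10 mM EDTA and 60 min incubation at 22°C. Inhibition normalized between no-enzyme (min) and DMSO (max) controls, then fitted to a four-parameter curve (Top, Bottom, HillSlope).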

Another assay concerns the target T3, FGFR2 (Homo sapiens, UniProt P21802).
T3 construct: FGFR2's cytoplasmic domain [399-821 (terminal) amino acids]; purchased Carna 08-134
As to the kind of experiment: FGFR2 kinase activity inhibition assay (LanthaScreen TR-FRET). The conditions noted are these: FGFR2 kinase, TR-FRET; read-out: IC50 (nM) FGFR2. In outline:
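GST-fused FGFR2 cytoplasmic domain (aa 399-821) was run as in the FGFR1 protocol: preincubated 10 min at 23 °C with compound (3-fold series from 1 µM) in 50 mM HEPES pH 7.5, 10 mM MgCl2, 4 mM DTT, 1% DMSO. A 2× mix of 28 nM fluorescein-poly GT/28 µM ATP then reacted 30 min. Tb-PY20/EDTA quench preceded the TR-FRET 520/495 read.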

Another assay has as its target T4, FGFR3 (Homo sapiens, UniProt P22607).
T4 construct: FGFR3's cytoplasmic domain [436-806 (terminal) amino acids]; purchased Carna 08-135
The assay can be described thus: FGFR3 kinase activity inhibition assay (LanthaScreen TR-FRET). As to conditions: for IC50: FGFR3 kinase, TR-FRET, read-out: IC50 (nM) FGFR3; for Selectivity (X) FGFR1/FGFR3: ratio of IC50 FGFR1/FGFR3, selectivity towards FGFR3; for Selectivity (X) FGFR2/FGFR3: ratio of IC50 FGFR2/FGFR3, selectivity towards FGFR3; for Selectivity (X) FGFR4/FGFR3: ratio of IC50 FGFR4/FGFR3, selectivity towards FGFR3. In short, it runs like this: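 Read-out is TR-FRET, with the 520 nm/495 nm emission ratio normalised to DMSO (max) and enzyme-free (min) controls. Enzyme was the FGFR3 cytoplasmic domain, residues 436-806. EDTA (10 mM) stopped the reaction, followed by 60 min at 22 °C before reading.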

T1 sequence (P22455 460-802): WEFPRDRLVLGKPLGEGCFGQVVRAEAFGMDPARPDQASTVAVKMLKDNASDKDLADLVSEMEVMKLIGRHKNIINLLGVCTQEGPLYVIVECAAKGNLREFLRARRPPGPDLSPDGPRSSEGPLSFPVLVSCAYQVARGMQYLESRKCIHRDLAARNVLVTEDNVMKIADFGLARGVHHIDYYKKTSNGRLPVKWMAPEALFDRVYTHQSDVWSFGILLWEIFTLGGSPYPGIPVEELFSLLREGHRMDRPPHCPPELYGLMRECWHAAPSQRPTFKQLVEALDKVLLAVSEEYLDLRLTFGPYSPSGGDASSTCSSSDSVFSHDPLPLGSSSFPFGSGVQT
T3 sequence (P21802 399-821): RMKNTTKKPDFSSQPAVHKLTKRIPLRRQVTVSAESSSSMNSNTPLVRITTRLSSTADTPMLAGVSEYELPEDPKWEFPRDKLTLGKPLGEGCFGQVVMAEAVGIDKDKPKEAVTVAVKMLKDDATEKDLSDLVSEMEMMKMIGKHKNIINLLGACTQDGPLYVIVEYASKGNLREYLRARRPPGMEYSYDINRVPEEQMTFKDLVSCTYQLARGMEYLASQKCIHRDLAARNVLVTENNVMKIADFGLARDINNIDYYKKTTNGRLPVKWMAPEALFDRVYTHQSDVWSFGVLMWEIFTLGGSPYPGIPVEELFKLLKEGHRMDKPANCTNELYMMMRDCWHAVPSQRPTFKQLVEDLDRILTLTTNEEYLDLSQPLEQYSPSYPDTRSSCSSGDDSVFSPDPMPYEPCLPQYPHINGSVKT
T4 sequence (P22607 436-806): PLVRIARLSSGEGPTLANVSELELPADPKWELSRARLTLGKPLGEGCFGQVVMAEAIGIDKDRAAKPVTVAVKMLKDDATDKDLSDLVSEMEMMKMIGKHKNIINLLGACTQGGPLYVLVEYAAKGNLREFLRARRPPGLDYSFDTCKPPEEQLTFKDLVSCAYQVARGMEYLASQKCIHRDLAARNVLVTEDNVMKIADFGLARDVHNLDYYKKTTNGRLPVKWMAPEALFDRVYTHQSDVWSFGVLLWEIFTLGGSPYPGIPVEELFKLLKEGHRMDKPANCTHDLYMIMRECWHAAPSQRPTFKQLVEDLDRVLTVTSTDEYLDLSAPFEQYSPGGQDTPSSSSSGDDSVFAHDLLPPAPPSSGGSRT

For `C[C@@H](Oc1ccc2[nH]nc(-c3ccc(S(C)(=N)=O)nc3)c2c1)c1c(Cl)cncc1Cl` (stereo partly drawn) [Comparative Example 85, (5-(5-((R)-1-(3,5-dichloropyridin-4-yl)ethoxy)-1H-indazol-3-yl)pyridin-2-yl)(imino)(methyl)-sulfanone, reference compound], the IC50 (as a rule, the concentration needed to halve the response being measured) at FGFR4 lay in the range of 10 to 100 nM.
Consider `C[C@@H](Oc1cc(F)c2[nH]nc(-c3cnn(CCN4CCOCC4)c3)c2c1)c1c(Cl)cncc1Cl` [Example 12, (R)-4-(2-(4-(5-(1-(3,5-dichloropyridin-4-yl)ethoxy)-7-fluoro-1H-indazol-3-yl)-1H-pyrazol-1-yl)ethyl)morph oline], for which, on FGFR1, the IC50 fell in the range of 10 to 100 nM. Moreover, the IC50 at FGFR2 was 1 to 10 nM. Also, at FGFR3, the IC50 lay within 1 to 10 nM, the “Selectivity (X) FGFR1/FGFR3” value was “B (B represents 20 ≤ multiple X<50)”, the “Selectivity (X) FGFR2/FGFR3” value is on record as “A (A represents 1 ≤ multiple X<20)” and the “Selectivity (X) FGFR4/FGFR3” value is given as “C (C represents 50 ≤ multiple X<100)”. Moreover, the IC50 at FGFR4 is 10 to 100 nM.
With `C[C@@H](Oc1ccc2[nH]nc(-c3cnn(C)c3)c2n1)c1c(Cl)cncc1Cl` [Example 29, (R)-5-(1-(3,5-dichloropyridin-4-yl)ethoxy)-3-(1-methyl-1H-pyrazol-4-yl)-1H-pyrazolo[4,3-b]pyridine], on FGFR1, the IC50 is 1 to 10 nM. Also, the IC50 at FGFR2 is under 1 nM. On FGFR3, the IC50 was under 1 nM, the “Selectivity (X) FGFR1/FGFR3” value is on record as “A (A represents 1 ≤ multiple X<20)”, the “Selectivity (X) FGFR2/FGFR3” value is on record as “A (A represents 1 ≤ multiple X<20)” and the “Selectivity (X) FGFR4/FGFR3” value was “A (A represents 1 ≤ multiple X<20)”. The IC50 at FGFR4 was in the range of 1 to 10 nM.
Regarding `C[C@@H](Oc1ccc2[nH]nc(-c3cnn(CCN4CCN(C)C(=O)C4)c3)c2n1)c1c(Cl)cncc1Cl` [Example 54, (R)-4-(2-(4-(5-(1-(3,5-dichloropyridin-4-yl)ethoxy)-1H-pyrazolo[4,3-b]pyridin-3-yl)-1H-pyrazol-1-yl)ethyl)-1-methylpiperazin-2-one], the IC50 at FGFR1 was in the range of 1 to 10 nM. For the same compound, at FGFR3, the IC50 was under 1 nM and the “Selectivity (X) FGFR1/FGFR3” value is “A (A represents 1 ≤ multiple X<20)”.
For `C[C@@H](Oc1ccc2[nH]nc(-c3cnn(CCN4CCS(=O)(=O)CC4)c3)c2n1)c1c(Cl)cncc1Cl` [Example 55, (R)-4-(2-(4-(5-(1-(3,5-dichloropyridin-4-yl)ethoxy)-1H-pyrazolo[4,3-b]pyridin-3-yl)-1H-pyrazol-1-yl)ethyl)thiomorph oline 1,1-dioxide] the same measures were 10 to 100 nM, under 1 nM and “A (A represents 1 ≤ multiple X<20)”.
As to `CC(Oc1ccc2[nH]nc(-c3cnn(C)c3)c2c1)c1cccn2ncnc12` (stereo not drawn) [Example 101, 8-(1-((3-(1-methyl-1H-pyrazol-4-yl)-1H-indazol-5-yl)oxy)ethyl)-[1,2,4]triazolo[1,5-a]pyridine], the IC50 on FGFR1 was 10 to 100 nM; on FGFR3, 1 to 10 nM. At FGFR3, the “Selectivity (X) FGFR1/FGFR3” value is “A (A represents 1 ≤ multiple X<20)”.
As to `CC(Oc1ccc2[nH]nc(-c3cnn(C)c3)c2c1)c1c(CF)ccc2ncccc12` (stereo not drawn) [Example 130, 6-(fluoromethyl)-5-(1-((3-(1-methyl-1H-pyrazol-4-yl)-1H-indazol-5-yl)oxy)ethyl)q uinoline], the values for the IC50 at FGFR1, on FGFR2 and at FGFR4 were 10 to 100 nM, 1 to 10 nM and 10 to 100 nM, respectively.
`CC(Oc1cc2c(-c3cnn(C)c3)n[nH]c2cc1F)c1cc(Cl)cc2nccnc12` (stereo not drawn) [Example 227, 7-chloro-5-(1-((6-fluoro-3-(1-methyl-1H-pyrazol-4-yl)-1H-indazol-5-yl)oxy)ethyl)qu inoxaline]: the half-maximal inhibitory concentration (IC50) at FGFR1 is 1 to 10 nM; at FGFR3, under 1 nM. In addition, at FGFR3, the “Selectivity (X) FGFR1/FGFR3” value is listed as “A (A represents 1 ≤ multiple X<20)”.

The values above are taken from EP4644383A1 (Jiangsu Yahong Meditech Co., Ltd., priority 2022, dated 2024).
